Experimental data reported in patent US11873313B1, “Development of novel tetra nuclear distorted square anti-prism Dy (III) imine complex for pharmaceutical and industrial applications” (KING FAISAL UNIVERSITY, priority 2023, dated 2024).
≈ marks a conversion by molar mass, not a printed value. Each block holds one molecule with its values, some of them ahead of it.

Legend:
breast cancer cell line = assay: Anti-oxidant activity; conditions: against the breast cancer cell line (so in the source)
E-coli bacteria = assay: Anti-microbial activity (antibacterial, inhibition zone and MIC); format: cell-based
colon cancer cell line = assay: Anti-cancer activity against colon cancer cell line; format: cell-based; conditions: read-out: IC50 (anticancer activity)

IC50 (Antioxidant activity) (breast cancer cell line): 55.2 µg/mL (≈ 313 µM)
SMILES: O=C1O[C@H]([C@@H](O)CO)C(O)=C1O [1-ascorbic acid, reference compound]

MIC (E-coli bacteria; Escherichia coli): 2.25 µg/mL (≈ 6.23 µM)
SMILES: CC1COc2c(N3CCN(C)CC3)c(F)cc3c(=O)c(C(=O)O)cn1c23 (stereo not shown) [Ofloxacin, reference compound]
inhibition zone (E-coli bacteria): 30 mm

IC50 (colon cancer cell line): 4.7 µg/mL (≈ 5.8 µM)
SMILES: CC[C@]1(O)C[C@@H]2CN(CCc3c([nH]c4ccccc34)[C@@](C(=O)OC)(c3cc4c(cc3OC)N(C)[C@H]3[C@@](O)(C(=O)OC)[C@H](OC(C)=O)[C@]5(CC)C=CCN6CC[C@]43[C@@H]65)C2)C1 [vinblastine, reference compound]
